Tested on: rabbit skeletal myofibrils (fast skeletal myofibrils)
Test: Activation of fast skeletal myofibrils (PUMA assay, PK/LDH-coupled ATPase at pCa25)
Assay type: biochemical
Conditions: procedure of Example 39
Procedure, shortened: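 ATPase activity of Triton-washed rabbit skeletal myofibrils, roughly 90% fast fibres, tracked by NADH loss at 340 nm through a PK/LDH-coupled ADP-regenerating system. Calcium set to 25% of maximal activity (pCa25), in PIPES 12 mM pH 6.8 with 2 mM MgCl2 and 1 mM DTT; AC1.4 reported.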

| SMILES | Mean AC1.4 (median AC1.4 class) | Mean AC1.4 (median AC1.4 reported as class) |
| --- | --- | --- |
| CS(=O)(=O)CCNC(=O)c1cnc(-c2ccc(NCC3(c4ncccc4F)CCC3)nn2)s1 [{2-[6-({[(3-fluoro(2-pyridyl))cyclobutyl]methyl}ami-no)pyridazin-3-yl](1,3-thiazol-5-yl)}-N-[2-(methylsulfonyl)ethyl]carboxamide] | A (A=<1 uM) |  |
| CNC(=O)c1cnc(-c2ccc(NCC3(c4ncccc4F)CCC3)nn2)s1 [{2-[6-({[(3-fluoro(2-pyridyl))cyclobutyl]methyl}ami-no)pyridazin-3-yl](1,3-thiazol-5-yl)}-N-methylcarboxamide] | A (A=<1 uM) |  |
| O=C(NC1CCNC1)c1cnc(-c2ccc(NCC3(c4ncccc4F)CCC3)nn2)s1 (stereo not drawn) [{2-[6-({[(3-fluoro(2-pyridyl))cyclobutyl]methyl}ami-no)pyridazin-3-yl](1,3-thiazol-5-yl)}-N-pyrrolidin-3-ylcarboxamide] | A (A=<1 uM) |  |
| Cc1cc(NCC2(c3ncccc3F)CCC2)nnc1-c1ncc(CO)s1 [{2-[6-({[(3-fluoro(2-pyridyl))cyclobutyl]methyl}amino)-4-methylpyridazin-3-yl]-1,3-thiazol-5-yl}methan-1-ol] |  | B (B=1-10 uM) |
| CNC(=O)c1cc(-c2ccc(NC[C@]3(c4ncccc4F)C[C@H](F)C3)nn2)ccc1F [{2-fluoro-5-[6-({[3-fluoro-1-(3-fluoro(2-pyridyl))cyclobutyl]methyl}ami-no)pyridazin-3-yl]phenyl}-N-methylcarboxamide] |  | C (C=10-20 uM) |
| CNC(=O)c1cccc(-c2ccc(NC[C@]3(c4ncccc4F)C[C@H](F)C3)nn2)c1O [{3-[6-({[3-fluoro-1-(3-fluoro(2-pyridyl))cyclobutyl]methyl}ami-no)pyridazin-3-yl]-2-hydroxyphenyl}-N-methylcarboxamide] |  | A (A=<1 uM) |
| CNC(=O)c1ccc(O)c(-c2ccc(NC[C@]3(c4ncccc4F)C[C@H](F)C3)nn2)c1 [{3-[6-({[3-fluoro-1-(3-fluoro(2-pyridyl))cyclobutyl]methyl}ami-no)pyridazin-3-yl]-4-hydroxyphenyl}-N-methylcarboxamide] |  | B (B=1-10 uM) |
| CN1CC(NC(=O)c2cccc(-c3ccc(NC[C@]4(c5ncccc5F)C[C@H](F)C4)nn3)c2)C1 [{3-[6-({[3-fluoro-1-(3-fluoro(2-pyridyl))cyclobutyl]methyl}ami-no)pyridazin-3-yl]phenyl}-N-(1-methylazetidin-3-yl)carboxamide] |  | B (B=1-10 uM) |
| CC(C)(O)CNC(=O)c1cccc(-c2ccc(NC[C@]3(c4ncccc4F)C[C@H](F)C3)nn2)c1 [{3-[6-({[3-fluoro-1-(3-fluoro(2-pyridyl))cyclobutyl]methyl}ami-no)pyridazin-3-yl]phenyl}-N-(2-hydroxy-2-methylpropyl)carboxamide] |  | B (B=1-10 uM) |
| CC1(O)CC(NC(=O)c2cccc(-c3ccc(NC[C@]4(c5ncccc5F)C[C@H](F)C4)nn3)c2)C1 (stereo partly drawn) [{3-[6-({[3-fluoro-1-(3-fluoro(2-pyridyl))cyclobutyl]methyl}ami-no)pyridazin-3-yl]phenyl}-N-(3-hydroxy-3-methylcyclobutyl)carboxamide] |  | B (B=1-10 uM) |
| CS(=O)(=O)N1CC(NC(=O)c2cccc(-c3ccc(NC[C@]4(c5ncccc5F)C[C@H](F)C4)nn3)c2)C1 [{3-[6-({[3-fluoro-1-(3-fluoro(2-pyridyl))cyclobutyl]methyl}ami-no)pyridazin-3-yl]phenyl}-N-[1-(methylsulfonyl)azetidin-3-yl]carboxamide] |  | B (B=1-10 uM) |
| CNC(=O)c1cccc(-c2ccc(NC[C@]3(c4ncccc4F)C[C@H](F)C3)nn2)c1 [{3-[6-({[3-fluoro-1-(3-fluoro(2-pyridyl))cyclobutyl]methyl}ami-no)pyridazin-3-yl]phenyl}-N-methylcarboxamide] |  | A (A=<1 uM) |
| O=C(NC1COC1)c1cccc(-c2ccc(NC[C@]3(c4ncccc4F)C[C@H](F)C3)nn2)c1 [{3-[6-({[3-fluoro-1-(3-fluoro(2-pyridyl))cyclobutyl]methyl}ami-no)pyridazin-3-yl]phenyl}-N-oxetan-3-ylcarboxamide] |  | B (B=1-10 uM) |
| OCc1cccc(-c2ccc(NC[C@]3(c4ncccc4F)C[C@H](F)C3)nn2)c1 [{3-[6-({[3-fluoro-1-(3-fluoro(2-pyridyl))cyclobutyl]methyl}ami-no)pyridazin-3-yl]phenyl}methan-1-ol] |  | B (B=1-10 uM) |
| CNC(=O)c1ccc(O)c(-c2ccc(NCC3(c4ncccc4F)CCC3)nn2)c1 [{3-[6-({[(3-fluoro(2-pyridyl))cyclobutyl]methyl}amino)pyr-idazin-3-yl]-4-hydroxyphenyl}-N-methylcarboxamide] |  | B (B=1-10 uM) |

Second part, the compound after the results:

| Mean AC1.4 (median AC1.4 class) | Mean AC1.4 (median AC1.4 reported as class) | SMILES |
| --- | --- | --- |
| B (B=1-10 uM) |  | O=C(NCC1CCCO1)c1cnc(-c2ccc(NCC3(c4ncccc4F)CCC3)nn2)s1 (stereo not drawn) [{2-[6-({[(3-fluoro(2-pyridyl))cyclobutyl]methyl}ami-no)pyridazin-3-yl](1,3-thiazol-5-yl)}-N-(oxolan-2-ylmethyl)carboxamide] |
| B (B=1-10 uM) |  | OCc1cnc(-c2ccc(NCC3(c4ncccc4F)CCC3)nn2)s1 [{2-[6-({[(3-fluoro-2-pyridyl)cyclobutyl]methyl}ami-no)pyridazin-3-yl]-1,3-thiazol-5-yl}methan-1-ol] |
| A (A=<1 uM) |  | CC(C)(Nc1ccc(-c2cccc(NS(C)(=O)=O)c2)nn1)c1cccc(OC(F)F)n1 [{3-[6-({1-[6-(difluoromethoxy)(2-pyridyl)]-isopropyl}amino)pyridazin-3-yl]phenyl}(methylsulfonyl)amine] |
|  | B (B=1-10 uM) | CNC(=O)c1cc(C)cc(-c2ccc(NC[C@]3(c4ncccc4F)C[C@H](F)C3)nn2)c1O [{3-[6-({[3-fluoro-1-(3-fluoro(2-pyridyl))cyclobutyl]methyl}ami-no)pyridazin-3-yl]-2-hydroxy-5-methylphenyl}-N-methylcarboxamide] |
|  | B (B=1-10 uM) | CNC(=O)c1cc(C)cc(-c2ccc(NC[C@]3(c4ncccc4F)C[C@H](F)C3)nn2)c1 [{3-[6-({[3-fluoro-1-(3-fluoro(2-pyridyl))cyclobutyl]methyl}ami-no)pyridazin-3-yl]-5-methylphenyl}-N-methylcarboxamide] |
|  | B (B=1-10 uM) | O=C(NC1CC(O)C1)c1cccc(-c2ccc(NC[C@]3(c4ncccc4F)C[C@H](F)C3)nn2)c1 (stereo partly drawn) [{3-[6-({[3-fluoro-1-(3-fluoro(2-pyridyl))cyclobutyl]methyl}ami-no)pyridazin-3-yl]phenyl}-N-(3-hydroxycyclobutyl)carboxamide] |
|  | B (B=1-10 uM) | O=C(NC(CO)CO)c1cccc(-c2ccc(NC[C@]3(c4ncccc4F)C[C@H](F)C3)nn2)c1 [{3-[6-({[3-fluoro-1-(3-fluoro(2-pyridyl))cyclobutyl]methyl}ami-no)pyridazin-3-yl]phenyl}-N-[2-hydroxy-1-(hydroxymethyl)ethyl]carboxamide] |
|  | A (A=<1 uM) | O=C(NCC1(O)CC1)c1cccc(-c2ccc(NC[C@]3(c4ncccc4F)C[C@H](F)C3)nn2)c1 [{3-[6-({[3-fluoro-1-(3-fluoro(2-pyridyl))cyclobutyl]methyl}ami-no)pyridazin-3-yl]phenyl}-N-[(hydroxycyclopropyl)methyl]car-boxamide] |
|  | B (B=1-10 uM) | CNC(=O)c1cccc(-c2ccc(NCC3(c4ncccc4F)CCC3)nn2)c1 [{3-[6-({[(3-fluoro(2-pyridyl))cyclobutyl]methyl}ami-no)pyridazin-3-yl]phenyl}-N-methylcarboxamide] |
